Paper PMC5881017, “Mechanisms of BK Channel Activation by Docosahexaenoic Acid in Rat Coronary Arterial Smooth Muscle Cells” (Frontiers in Pharmacology, 2018)

Target: T1, large-conductance calcium-activated potassium (BK) channel (Rattus norvegicus, UniProt Q62976)
T1 construct: gene Kcnma1; native BK channels in freshly isolated rat coronary arterial smooth muscle cells (inside-out patches)
Assay: inside-out single-channel patch clamp (open probability at +[…] mV)
Assay type: cell-based

T1 sequence (Q62976 whole entry): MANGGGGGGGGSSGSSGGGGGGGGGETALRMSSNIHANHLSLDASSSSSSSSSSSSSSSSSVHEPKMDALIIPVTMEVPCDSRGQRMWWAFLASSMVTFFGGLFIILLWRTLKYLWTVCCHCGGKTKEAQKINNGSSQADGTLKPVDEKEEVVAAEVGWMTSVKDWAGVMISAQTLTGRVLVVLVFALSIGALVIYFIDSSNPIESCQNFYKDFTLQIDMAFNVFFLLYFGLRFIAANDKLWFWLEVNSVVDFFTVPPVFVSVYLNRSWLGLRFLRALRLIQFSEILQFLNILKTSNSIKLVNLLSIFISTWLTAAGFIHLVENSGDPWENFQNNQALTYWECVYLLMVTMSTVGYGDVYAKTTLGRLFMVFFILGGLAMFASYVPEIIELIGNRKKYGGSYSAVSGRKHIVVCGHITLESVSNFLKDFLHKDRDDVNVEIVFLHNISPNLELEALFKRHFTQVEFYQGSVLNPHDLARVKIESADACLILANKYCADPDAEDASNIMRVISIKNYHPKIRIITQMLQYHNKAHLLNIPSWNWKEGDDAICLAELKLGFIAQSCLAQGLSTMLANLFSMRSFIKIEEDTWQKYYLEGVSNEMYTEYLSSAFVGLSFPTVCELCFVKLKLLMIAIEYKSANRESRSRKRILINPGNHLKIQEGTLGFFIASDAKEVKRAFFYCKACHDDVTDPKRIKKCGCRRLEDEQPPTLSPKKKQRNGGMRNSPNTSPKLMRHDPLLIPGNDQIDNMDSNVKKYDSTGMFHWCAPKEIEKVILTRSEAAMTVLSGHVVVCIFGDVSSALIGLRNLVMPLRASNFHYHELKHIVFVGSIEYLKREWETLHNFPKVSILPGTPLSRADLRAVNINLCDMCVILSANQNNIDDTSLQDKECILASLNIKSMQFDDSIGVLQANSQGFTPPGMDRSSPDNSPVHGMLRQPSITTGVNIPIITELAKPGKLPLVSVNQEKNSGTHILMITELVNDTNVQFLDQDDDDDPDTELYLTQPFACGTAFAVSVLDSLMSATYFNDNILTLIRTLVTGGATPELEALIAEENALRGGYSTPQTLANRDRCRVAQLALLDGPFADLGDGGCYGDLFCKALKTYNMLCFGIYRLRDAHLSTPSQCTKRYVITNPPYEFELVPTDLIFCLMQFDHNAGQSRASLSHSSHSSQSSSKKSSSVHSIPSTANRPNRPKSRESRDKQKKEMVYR

EC50: 3.37 ± 0.1 µM
SMILES: CC/C=C\C/C=C\C/C=C\C/C=C\C/C=C\C/C=C\CCC(=O)O [Docosahexaenoic acid]
